Assay results taken from patent EP4800012A1, “COMPOUND ACTING AS PARP7 INHIBITOR” (Dovetree Medicines Unus, Inc., priority 2023, dated 2025).

What was measured:
PARP7 [1] = molecular target: T1, PARP7 (Homo sapiens, UniProt Q7Z3E1); assay: Inhibition of the compound on PARP7 protein activity (ADP-ribosylation, chemiluminescence); format: biochemical; settings: Histone H1 coated plate, Biotin-Labeled NAD+, 2 h at room temperature, chemiluminescence; read-out: PARP7 activity inhibition IC50
T1 construct: purchased BPS 80527
T1 sequence (Q7Z3E1 1-657): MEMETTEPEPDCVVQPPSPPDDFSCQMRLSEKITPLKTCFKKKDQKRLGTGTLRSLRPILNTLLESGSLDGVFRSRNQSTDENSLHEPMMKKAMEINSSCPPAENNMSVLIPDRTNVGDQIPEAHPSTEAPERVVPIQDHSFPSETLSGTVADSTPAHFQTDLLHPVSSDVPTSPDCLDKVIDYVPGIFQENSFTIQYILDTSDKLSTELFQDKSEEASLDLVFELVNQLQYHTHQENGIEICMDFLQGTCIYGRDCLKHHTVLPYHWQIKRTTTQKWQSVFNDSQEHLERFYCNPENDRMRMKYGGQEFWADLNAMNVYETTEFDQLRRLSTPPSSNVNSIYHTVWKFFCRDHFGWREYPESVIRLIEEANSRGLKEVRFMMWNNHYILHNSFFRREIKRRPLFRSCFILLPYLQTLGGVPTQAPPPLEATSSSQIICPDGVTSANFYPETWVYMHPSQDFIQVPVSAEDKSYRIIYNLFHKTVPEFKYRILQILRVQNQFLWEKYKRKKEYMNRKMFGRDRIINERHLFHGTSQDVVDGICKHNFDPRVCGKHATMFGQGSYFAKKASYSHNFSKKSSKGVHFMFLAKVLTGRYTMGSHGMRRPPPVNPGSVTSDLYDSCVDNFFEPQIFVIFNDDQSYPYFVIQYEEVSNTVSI

NCI-H1373 cells = assay: Inhibition on NCI-H1373 cell proliferation (Cell-Titer-Glo); format: cell-based; settings: Homo sapiens, 144 h; NCI-H1373 cells, incubation for 6 days, Cell-Titer-Glo; read-out: NCI-H1373 cell proliferation inhibition IC50
Protocol: The inhibitory effect of the compound on PARP7 was evaluated by testing the inhibitory effect of the compound on NCI-H1373 cell proliferation.
NCI-H1373 cells (ATCC, CRL-5866) were cultured in a complete medium, namely, a RPMI-1640 medium (Gibco, 22400089) containing 10% fetal bovine serum (Corning, 35-081-CV).
Negative control wells and positive control wells were added with 50 nL DMSO (Sigma, D2650), respectively.
In "Day 0" detection plate, NCI-H1373 cells were seeded at a density of 600 cells/well (50 µL) in a complete medium into the Day 0 test wells of a 384-well detection plate (Grenier, 781091). Then, 25 µL of Cell-Titer-Glo reagent (Promega, G7573) was added to each well, followed by centrifugation at 1000 rpm at room temperature for 1 minute and incubation at room temperature under shaded conditions for 10 min. Chemiluminescence signals were collected using an Envision (Perkin Elmer, EnVision 2105) to obtain the average value of the Day 0 test values.
In "compound detection plate", NCI-H1373 cells were seeded at a density of 600 cells/well (50 µL) in a complete medium into the negative control wells and the compound detection wells of a 384-well detection plate (Grenier, 781091), and 50 µL of cell culture medium was added to the positive control wells, followed by centrifugation at 1000 rpm at room temperature for 1 minute and placing in a cell incubator at 37°C, 5% CO2 for incubation for 6 days. […] Chemiluminescence signals were collected using an Envision (Perkin Elmer, EnVision 2105). The test values for each compound well, negative control well, and positive control well were obtained.
The proliferation inhibition ratio formula is as follows: [formula]
The average value of the negative control = the average value of the Day 6 test values of each negative control well minus the average value of the Day 0 test values
The average value of the positive control = the average value of the Day 6 test values of each positive control well
The average value of the compound test = (the Day 6 test value of compound test well 1 + the Day 6 test value of compound test well 2)/2 - the average value of the Day 0 test values

PARP7 [2] = molecular target: T1, PARP7; assay: PARP7 TR-FRET binding inhibition (displacement of probe RBN011147); settings: TR-FRET, Biotin-labeled probe RBN011147; read-out: PARP7 binding inhibition IC50
Protocol: The ability of the compound to substitute the probe RBN011147 (Wigle et al., 2020, Cell Chemical Biology 27, 877-887) was tested by a TR-FRET method, and IC50 was calculated to evaluate the binding ability of the compound to PARP7. […]

| Structure (SMILES) | IC50 (PARP7 [1]) [nM] | IC50 (NCI-H1373 cells) [nM] | IC50 (PARP7 [2]) [nM] |
| --- | --- | --- | --- |
| CC(CCCNC(=O)c1ccc(-c2ncc(C(F)(F)F)cn2)cc1O)Nc1cn[nH]c(=O)c1C(F)(F)F (stereo not drawn) [Example 1] | < 3 | 1000 to 3000 | < 10 |
| CC(CCCNC(=O)c1ccc(-c2ncc(C(F)(F)F)cn2)cc1F)Nc1cn[nH]c(=O)c1C(F)(F)F (stereo not drawn) [Example 2] | < 3 | 300 to 1000 | < 10 |
| CC(CCCNC(=O)c1ccc(-c2ncc(C(F)(F)F)cn2)cc1)Nc1cn[nH]c(=O)c1C(F)(F)F (stereo not drawn) [Example 3] | < 3 | 300 to 1000 | < 10 |
| CC(CCCNC(=O)c1cccc2c1CCN2c1ncc(C(F)(F)F)cn1)Nc1cn[nH]c(=O)c1C(F)(F)F (stereo not drawn) [Example 5] | < 3 | > 3000 | 10 to 30 |
| CC(CCNC(=O)c1n[nH]c2cc(-c3ncc(C(F)(F)F)cn3)ccc12)Nc1cn[nH]c(=O)c1C(F)(F)F (stereo not drawn) [Example 7] | – | > 3000 | 30 to 100 |
| CC(CCNC(=O)c1n[nH]c2c1CCN(c1ncc(C(F)(F)F)cn1)C2)Nc1cn[nH]c(=O)c1C(F)(F)F (stereo not drawn) [Example 8] | – | > 3000 | 10 to 30 |
| O=C(CCc1c[nH]c(=O)c2ccccc12)Nc1ccc(-c2ncc(C(F)(F)F)cn2)cc1 [Example 12] | 3 to 10 | – | 10 to 30 |
| Cc1cnc(-c2cnc(C(=O)NCCCC(C)Nc3cn[nH]c(=O)c3C(F)(F)F)cn2)s1 (stereo not drawn) [Example 24] | – | > 3000 | 10 to 30 |
| Cc1cc(NC(C)CCCN(C)C(=O)c2ccc(-c3ncc(C(F)(F)F)cn3)cc2O)c(C#N)c(=O)[nH]1 (stereo not drawn) [Example 33] | 30 to 100 | – | > 100 |
| CC(CCCN(C)C(=O)c1cnc(N2CCOCC2)cn1)Nc1cn[nH]c(=O)c1C(F)(F)F (stereo not drawn) [Example 36] | 30 to 100 | – | > 100 |
| CC(CCCN(C)C(=O)c1cnc(N2CCN(C3CC3)CC2)cn1)Nc1cn[nH]c(=O)c1C(F)(F)F (stereo not drawn) [Example 37] | > 100 | – | > 100 |
| Cc1cc(NCCCC(C)NC(=O)c2cnc(-c3ncc(C(F)(F)F)cn3)cn2)c(C#N)c(=O)[nH]1 (stereo not drawn) [Example 49] | 30 to 100 | – | > 100 |
| CC(CCCNC(=O)c1ccc(-c2ncc(C(F)(F)F)s2)cc1F)Nc1cc[nH]c(=O)c1C#N (stereo not drawn) [Example 71] | > 100 | – | > 100 |
| CC(CCCNC(=O)c1ccc(-c2cc(C(F)(F)F)sn2)cc1)Nc1cn[nH]c(=O)c1C(F)(F)F (stereo not drawn) [Example 83] | – | < 300 | < 10 |
| O=C(NCC1CC(Nc2cn[nH]c(=O)c2C(F)(F)F)C1)c1ccc(-c2ncc(C(F)(F)F)s2)cc1 (stereo not drawn) [Example 129] | – | – | > 100 |
| O=C(NCCC1CC(OC2CC2)CN1c1cn[nH]c(=O)c1C(F)(F)F)c1ccc(-c2ncc(C(F)(F)F)s2)cn1 (stereo not drawn) [Example 138] | – | – | > 100 |
| CC(CC1CN(C(=O)c2ccc(-n3cc(C(F)(F)F)cn3)cc2)C1)Nc1cn[nH]c(=O)c1C(F)(F)F (stereo not drawn) [Example 218] | – | – | > 100 |
| O=C(c1ccc(-c2ncc(C(F)(F)F)s2)cc1)N1CC2(CC(Nc3cn[nH]c(=O)c3C(F)(F)F)C2)C1 [Example 219] | – | – | > 100 |
| O=C(NCCC[C@@H](Nc1cn[nH]c(=O)c1C(F)(F)F)C(=O)N1CCC2(CC2)C1)c1ccc(-c2ncc(C(F)(F)F)s2)cc1 [Example 220] | – | < 300 | < 10 |
| C[C@@H]1CCN(C(=O)[C@@H](CCCNC(=O)c2ccc(-c3ncc(C(F)(F)F)s3)cc2)Nc2cn[nH]c(=O)c2C(F)(F)F)C1 [Example 225] | – | < 300 | < 10 |

| Structure (SMILES) | IC50 (PARP7 [1]) [nM] | IC50 (NCI-H1373 cells) [nM] | IC50 (PARP7 [2]) [nM] |
| --- | --- | --- | --- |
| O=C(NCC1CC(Nc2cn[nH]c(=O)c2C(F)(F)F)C1)c1ccc(-c2ncc(C(F)(F)F)cn2)cc1 (stereo not drawn) [Example 226] | – | – | > 100 |
| CC1(NC(=O)[C@@H](CCCNC(=O)c2ccc(-c3ncc(C(F)(F)F)s3)cc2)Nc2cn[nH]c(=O)c2C(F)(F)F)CCOCC1 [Example 227] | – | < 300 | < 10 |
| O=C(NCCC[C@@H](Nc1cn[nH]c(=O)c1C(F)(F)F)C(=O)Nc1cccnc1)c1ccc(-c2ncc(C(F)(F)F)s2)cc1 [Example 234] | – | 300 to 1000 | < 10 |
| O=C(NCCC[C@@H](Nc1cn[nH]c(=O)c1C(F)(F)F)C(=O)N1CCSCC1)c1ccc(-c2ncc(C(F)(F)F)s2)cc1 [Example 236] | – | 300 to 1000 | 10 to 30 |
| C[C@H]1CCN1C(=O)[C@@H](CCCNC(=O)c1ccc(-c2ncc(C(F)(F)F)s2)cc1)Nc1cn[nH]c(=O)c1C(F)(F)F [Example 240] | – | > 3000 | 10 to 30 |
| Cc1c(-c2cnc(C(F)(F)F)s2)ncn(CCCC(C)Nc2cn[nH]c(=O)c2C(F)(F)F)c1=O (stereo not drawn) [Example 248] | – | > 3000 | 30 to 100 |
| NC(=O)c1cccc2cn(CCCNC(=O)c3ncc(-c4ncc(C(F)(F)F)s4)cc3F)nc12 [Example 249] | – | > 3000 | 30 to 100 |
| CC(CCCn1ccc2cc(-c3ncc(C(F)(F)F)cn3)cnc2c1=O)Nc1cn[nH]c(=O)c1C(F)(F)F (stereo not drawn) [Example 250] | – | > 3000 | 10 to 30 |
| CC(COCc1cc(-c2cnc(C(F)(F)F)nc2)sn1)Nc1cn[nH]c(=O)c1C(F)(F)F (stereo not drawn) [Example 251] | – | > 3000 | > 100 |
| NC(=O)c1cccc2cn(CCCn3cnc4cc(-c5ncc(C(F)(F)F)cn5)c(F)cc4c3=O)nc12 [Example 252] | – | > 3000 | > 100 |
| CC(CCCn1ccc2cc(-c3ncc(C(F)(F)F)s3)cnc2c1=O)Nc1cn[nH]c(=O)c1C(F)(F)F (stereo not drawn) [Example 253] | – | 1000 to 3000 | < 10 |
| NC(=O)c1cccc2cn(CCCn3ccc4cc(-c5ncc(C(F)(F)F)cn5)c(F)cc4c3=O)nc12 [Example 254] | – | – | > 100 |
| COC1CCN(C(=O)[C@@H](CCCNC(=O)c2ccc(-c3ncc(C(F)(F)F)s3)cc2)Nc2cn[nH]c(=O)c2C(F)(F)F)CC1 [Example 255] | – | 300 to 1000 | < 10 |
| COC1CN(C(=O)[C@@H](CCCNC(=O)c2ccc(-c3ncc(C(F)(F)F)s3)cc2)Nc2cn[nH]c(=O)c2C(F)(F)F)C1 [Example 256] | – | 300 to 1000 | < 10 |
| Cc1cccc(NC(=O)[C@@H](CCCNC(=O)c2ccc(-c3ncc(C(F)(F)F)s3)cc2)Nc2cn[nH]c(=O)c2C(F)(F)F)n1 [Example 257] | – | < 300 | < 10 |
| CC(C)NC(=O)[C@@H](CCCNC(=O)c1ccc(-c2ncc(C(F)(F)F)s2)cc1)Nc1cn[nH]c(=O)c1C(F)(F)F [Example 258] | – | < 300 | < 10 |
| CCN(C)C(=O)[C@@H](CCCNC(=O)c1ccc(-c2ncc(C(F)(F)F)s2)cc1)Nc1cn[nH]c(=O)c1C(F)(F)F [Example 259] | – | < 300 | < 10 |
| N#C[C@@H]1CCCN(C(=O)[C@@H](CCCNC(=O)c2ccc(-c3ncc(C(F)(F)F)s3)cc2)Nc2cn[nH]c(=O)c2C(F)(F)F)C1 [Example 260] | – | 1000 to 3000 | 10 to 30 |
| N#CC1CCN(C(=O)C(CCCNC(=O)c2ccc(-c3ncc(C(F)(F)F)s3)cc2)Nc2cn[nH]c(=O)c2C(F)(F)F)C1 (stereo not drawn) [Example 261] | – | 300 to 1000 | 30 to 100 |
| CC[C@@H]1CN(C(=O)[C@@H](CCCNC(=O)c2ccc(-c3ncc(C(F)(F)F)s3)cc2)Nc2cn[nH]c(=O)c2C(F)(F)F)CCO1 [Example 262] | – | < 300 | 10 to 30 |
